# Data taken from patent publication US20130131161A1, “METHODS AND COMPOSITIONS FOR CARDIOVASCULAR DISEASES AND CONDITIONS” (priority 2009, published 2013).
# Tested on: Human umbilical vein endothelial cells (HUVECs)
# Test: eNOS activity analysis: NO, ONOO− and NO/ONOO− release from HUVECs of 50 genotyped donors in response to LA-419 (Example 2)
# Format: cell-based
# Settings: for Net increase over control ONOO− (mean ± sd) / Peak release NO (mean ± sd) / Peak release NO/ONOO− (mean ± sd) / Peak release ONOO− (mean ± sd) / Net increase over control NO (mean ± sd) / Net increase over control NO/ONOO− (mean ± sd) / % Change Ratio, % Change NO/% Change ONOO− (mean ± sd): LA-419 1 μM; for % Change NO (mean ± sd) / % Change NO/ONOO− (mean ± sd) / % Change ONOO− (mean ± sd): LA-419 5 μM vs control
# Experimental: Concurrent measurements of NO and ONOO^− were carried out with tandem electrochemical nanosensors combined into one working unit with a total diameter of 200-500 nm (FIG. 1). Their design was based on previously developed and well-characterized chemically modified carbon-fiber technology (Malinski and Taha, 1992; Lvovich and Scheeline, 1997). Each of the nanosensors was made by depositing a sensing material on the tip of a carbon fiber (length 4-5 μm, diameter 0.2-0.5 μm). The fibers were sealed with nonconductive epoxy and electrically connected to copper wires with conductive silver epoxy. A conductive film of polymeric nickel (II) tetrakis(3-methoxy-4-hydroxyphenyl)porphyrin for the NO-sensor and polymeric film of Mn (III) [2.2]paracyclophanylporphyrin was used for the ONOO^−-sensor.
# A module of NO/ONOO^− nanosensors (diameter 1-2 μm) with a platinum wire (0.1 mm) counter electrode and saturated calomel reference electrode (SCE) were applied. Differential pulse voltammetry (DPV) and amperometry were performed with a computer-based Gamry VFP600 multichannel potentiostat. DPV was used to measure the basal NO and ONOO^− concentrations, and amperometry was used to measure changes in NO and ONOO^− concentrations from its basal level with time. The DPV current at the peak potential characteristic for NO oxidation (0.65 V) and ONOO^− reduction (−0.45 V) was directly proportional to the local concentrations of these compounds in the immediate vicinity of the sensor. Linear calibration curves (current vs. concentration) were constructed for each sensor from 10 nM to 3 μM before and after measurements with aliquots of NO and ONOO^− standard solutions, respectively. The detection limit of the sensors was 1.0 nM.
# The quantification of each analyte (concentration in nM) was performed using a maximum current from amperograms and standard calibration curves. A reproducibility of measurements with nanosensors is relatively high (between 5-12%). […] The sensors were slowly raised 5±2 μm from the surface of a single endothelial cell. The eNOS agonist, calcium ionophore A23187 (CaI) as well as the different drugs were then added to the surrounding media at the cell surface with a nanoinjector that was also positioned by a computer controlled-micromanipulator.
# This example describes the genotype-specific response of the three major eNOS variants to 1 μM and 5 μM concentrations of LA-419. The three major genetic polymorphisms studied were the Glu298Asp variant (E298D or 894G→T) in exon 7 of […], the −786T→C variant in the promoter region, and the intron 4 polymorphism (VNTR). All of these variants have possible effects on the cardiovascular system and endothelial dysfunction. For this study, human umbilical vein endothelial cells (HUVECs) from 50 donors between 18 and 32 years of age were used.
# For the analysis several analysis techniques were employed. First, the effect of genotype on NO and ONOO^− release was explored within the different concentrations of LA-419 (control, 1 μM, 5 μM), calculated as the average peak release (nmols/L) of NO, ONOO^−, and NO/ONOO^−. The effect of genotype on the net increase in NO, ONOO^−, and NO/ONOO^− for LA-419 (1 μM and 5 μM) as compared to control was also measured. In addition, an analysis was done on the effect of genotype on the % change in NO, ONOO^−, and NO/ONOO^− production for LA-419 (1 μM and 5 μM), calculated as:
# % Change=[(avg. LA-419−avg. control)/(avg. control)]*100
# Finally, an evaluation was undertaken concerning the effect of genotype on the production of NO, ONOO^−, and NO/ONOO^− as the fold difference of control for LA-419 (1 μM and 5 μM), calculated as:
# Fold Difference=(avg. LA-419)/(avg. control)
# Within each calculation technique the results were compared for statistical significance using a non-parametric ANOVA Kruskal-Wallace test or a non-parametric Mann-Whitney U test. Statistical significance was set at a p-value <0.05 in a two-tailed distribution. […]
# [1] = HUVECs Intron 4 variant b/a, a/a, c/c
# [2] = HUVECs T-786C variant T/C & C/C
# [3] = HUVEC donor Race Caucasian/Black
smiles,measurement,setting,value
"CC(=O)SC1COC2C(O[N+](=O)[O-])COC12 (stereo not drawn) [LA-419, S-(6-Nitro-oxi-hexahydro-furo[3,2-b]furan-3-1-il)thioacetate]",Net increase over control ONOO− (mean ± sd),HUVECs Intron 4 variant b/a,−37.57 (99.15) nmols/L
same,Peak release NO (mean ± sd),HUVECs Intron 4 variant b/a,377.23 (69.05) nmols/L
same,Peak release NO/ONOO− (mean ± sd),HUVECs Intron 4 variant b/a,1.25 (0.46)
same,Peak release ONOO− (mean ± sd),HUVECs Intron 4 variant b/a,330.47 (88.93) nmols/L
same,Net increase over control NO (mean ± sd),[1],27.83 (86.07) nmols/L
same,Net increase over control NO/ONOO− (mean ± sd),[1],0.16 (0.46)
same,Net increase over control ONOO− (mean ± sd),[1],−21.43 (98.29) nmols/L
same,Peak release NO (mean ± sd),[1],366.00 (71.50) nmols/L
same,Peak release NO/ONOO− (mean ± sd),[1],1.15 (0.48)
same,Peak release ONOO− (mean ± sd),[1],356.55 (98.40) nmols/L
same,Net increase over control NO (mean ± sd),HUVECs Intron 4 variant b/b,39.66 (70.27) nmols/L
same,Net increase over control NO/ONOO− (mean ± sd),HUVECs Intron 4 variant b/b,0.29 (0.47)
same,Net increase over control ONOO− (mean ± sd),HUVECs Intron 4 variant b/b,−51.71 (108.03) nmols/L
same,Peak release NO (mean ± sd),HUVECs Intron 4 variant b/b,393.18 (77.21) nmols/L
same,Peak release NO/ONOO− (mean ± sd),HUVECs Intron 4 variant b/b,1.33 (0.42)
same,Peak release ONOO− (mean ± sd),HUVECs Intron 4 variant b/b,317.60 (74.77) nmols/L
same,Net increase over control NO (mean ± sd),HUVECs Intron 4 variant c/c,−98.67 (0) nmols/L
same,Net increase over control NO/ONOO− (mean ± sd),HUVECs Intron 4 variant c/c,−0.23 (0)
same,Net increase over control ONOO− (mean ± sd),HUVECs Intron 4 variant c/c,−2.67 (0) nmols/L
same,Peak release NO (mean ± sd),HUVECs Intron 4 variant c/c,270.00 (0) nmols/L
same,Peak release NO/ONOO− (mean ± sd),HUVECs Intron 4 variant c/c,0.64 (0)
same,Peak release ONOO− (mean ± sd),HUVECs Intron 4 variant c/c,423.67 (0) nmols/L
same,"% Change Ratio, % Change NO/% Change ONOO− (mean ± sd)",HUVECs T-786C variant C/C,−0.80 (1.04)
same,Net increase over control NO (mean ± sd),HUVECs T-786C variant C/C,2.08 (39.61) nmols/L
same,Net increase over control NO/ONOO− (mean ± sd),HUVECs T-786C variant C/C,−0.48 (0.48)
same,Net increase over control ONOO− (mean ± sd),HUVECs T-786C variant C/C,25.25 (135.63) nmols/L
same,Peak release NO (mean ± sd),HUVECs T-786C variant C/C,334.25 (68.06) nmols/L
same,Peak release NO/ONOO− (mean ± sd),HUVECs T-786C variant C/C,0.88 (0.50)
same,Peak release ONOO− (mean ± sd),HUVECs T-786C variant C/C,430.17 (124.82) nmols/L
same,"% Change Ratio, % Change NO/% Change ONOO− (mean ± sd)",HUVECs T-786C variant T/C,−1.06 (0.82)
same,Net increase over control NO (mean ± sd),HUVECs T-786C variant T/C,46.77 (81.32) nmols/L
same,Net increase over control NO/ONOO− (mean ± sd),HUVECs T-786C variant T/C,−0.99 (0.94)
same,Net increase over control ONOO− (mean ± sd),HUVECs T-786C variant T/C,−61.09 (111.68) nmols/L
same,Peak release NO (mean ± sd),HUVECs T-786C variant T/C,396.32 (73.63) nmols/L
same,Peak release NO/ONOO− (mean ± sd),HUVECs T-786C variant T/C,1.35 (0.44)
same,Peak release ONOO− (mean ± sd),HUVECs T-786C variant T/C,315.74 (78.13) nmols/L
same,Net increase over control NO (mean ± sd),[2],40.15 (77.70) nmols/L
same,Net increase over control NO/ONOO− (mean ± sd),[2],−0.91 (0.90)
same,Net increase over control ONOO− (mean ± sd),[2],−48.30 (116.85) nmols/L
same,Peak release NO (mean ± sd),[2],387.12 (75.01) nmols/L
same,Peak release NO/ONOO− (mean ± sd),[2],1.28 (0.47)
same,Peak release ONOO− (mean ± sd),[2],332.69 (93.16) nmols/L
same,"% Change Ratio, % Change NO/% Change ONOO− (mean ± sd)",HUVECs T-786C variant T/T,1.06 (9.40)
same,Net increase over control NO (mean ± sd),HUVECs T-786C variant T/T,30.80 (64.85) nmols/L
same,Net increase over control NO/ONOO− (mean ± sd),HUVECs T-786C variant T/T,0.77 (8.26)
same,Net increase over control ONOO− (mean ± sd),HUVECs T-786C variant T/T,−27.14 (82.12) nmols/L
same,Peak release NO (mean ± sd),HUVECs T-786C variant T/T,380.73 (75.61) nmols/L
same,Peak release NO/ONOO− (mean ± sd),HUVECs T-786C variant T/T,1.22 (0.43)
same,Peak release ONOO− (mean ± sd),HUVECs T-786C variant T/T,335.82 (80.98) nmols/L
same,ONOO− production versus control,LA-419 5 μM (Table b2),decrease
same,% Change NO (mean ± sd),[3],16.93 (4.34) %
same,% Change NO/ONOO− (mean ± sd),[3],58.92 (16.01) %
same,% Change ONOO− (mean ± sd),[3],−25.30 (9.90) %
same,% Change NO (mean ± sd),HUVEC donor Race Not Reported,18.69 (5.53) %
same,% Change NO/ONOO− (mean ± sd),HUVEC donor Race Not Reported,75.55 (20.43) %
same,% Change ONOO− (mean ± sd),HUVEC donor Race Not Reported,−31.56 (5.34) %
same,% Change NO (mean ± sd),HUVEC donor alpha,12.82 (5.82) %
same,% Change NO/ONOO− (mean ± sd),HUVEC donor alpha,36.30 (14.59) %
same,% Change ONOO− (mean ± sd),HUVEC donor alpha,−16.43 (6.22) %
same,% Change NO (mean ± sd),HUVEC donor beta,14.30 (6.78) %
same,% Change NO/ONOO− (mean ± sd),HUVEC donor beta,39.65 (12.24) %
same,% Change ONOO− (mean ± sd),HUVEC donor beta,−17.84 (5.90) %
same,% Change NO (mean ± sd),HUVEC donor delta,13.97 (0) %
same,% Change NO/ONOO− (mean ± sd),HUVEC donor delta,57.83 (0) %
same,% Change ONOO− (mean ± sd),HUVEC donor delta,−27.79 (0) %
same,% Change NO (mean ± sd),HUVEC donor gamma,17.23 (7.65) %
same,% Change NO/ONOO− (mean ± sd),HUVEC donor gamma,57.79 (12.24) %
same,% Change ONOO− (mean ± sd),HUVEC donor gamma,−25.17 (5.79) %
same,% Change NO (mean ± sd),HUVECs G894T variant G/G,15.93 (6.37) %
same,% Change NO/ONOO− (mean ± sd),HUVECs G894T variant G/G,47.91 (17.67) %
same,% Change ONOO− (mean ± sd),HUVECs G894T variant G/G,−20.65 (7.38) %
same,% Change NO (mean ± sd),HUVECs G894T variant G/T,13.43 (6.31) %
same,% Change NO/ONOO− (mean ± sd),HUVECs G894T variant G/T,38.86 (13.20) %
same,% Change ONOO− (mean ± sd),HUVECs G894T variant G/T,−17.85 (6.26) %
same,% Change NO (mean ± sd),HUVECs G894T variant T/T,11.67 (6.86) %
same,% Change NO/ONOO− (mean ± sd),HUVECs G894T variant T/T,39.03 (13.43) %
same,% Change ONOO− (mean ± sd),HUVECs G894T variant T/T,−19.03 (8.40) %
same,% Change NO (mean ± sd),HUVECs Intron 4 variant a/a,13.60 (3.88) %
same,% Change NO/ONOO− (mean ± sd),HUVECs Intron 4 variant a/a,36.75 (3.58) %
same,% Change ONOO− (mean ± sd),HUVECs Intron 4 variant a/a,−16.60 (3.31) %
same,% Change NO (mean ± sd),HUVECs Intron 4 variant b/a,16.81 (6.88) %
same,% Change NO/ONOO− (mean ± sd),HUVECs Intron 4 variant b/a,45.81 (14.36) %
